From patent US20140323476A1, “PEPTIDE DEFORMYLASE INHIBITORS” (priority 2011, published 2014)
≈ marks a conversion by molar mass, not a printed value.

Assays:
[1] = Adsorption of labile water versus relative humidity; format: physicochemical
[2] = Dissolution rate in water, turbidity and visual inspection; format: physicochemical
Method: [(2R)-2-(cyclopentyl methyl)-3-(2-{5-fluoro-6-[(9aS)-hexahydropyrazino[2,1-c][1,4]oxazin-8(1h)-yl]-2-methyl-4-pyrimidinyl}hydrazino)-3-oxopropyl]hydroxyformamide was triturated with a mortar and pestle. The resulting powder (20 g, 1.0 eq, basis) was charged to a 250 mL jacketed vessel. The vessel was equipped with an overhead stirrer which was set to 60 RPM. The jacket fluid was controlled to 23° C. A solution of purified water (125 mL) and methanesulphonic acid (4.0 g, 2.7 mL, 1.0 eq) was prepared. The aqueous methanesulphonic acid solution was added to the vessel containing [(2R)-2-(cyclopentyl methyl)-3-(2-{5-fluoro-6-[(9aS)-hexahydropyrazino[2,1-c][1,4]oxazin-8(1h)-yl]-2-methyl-4-pyrimidinyl}hydrazino)-3-oxopropyl]hydroxyformamide. The resulting suspension was stirred continuously and monitored by turbidity and visual inspection. After 1 day, the turbidity and pH readings stabilized.
[(2R)-2-(cyclopentyl methyl)-3-(2-{5-fluoro-6-[(9aS)-hexahydropyrazino[2,1-c][1,4]oxazin-8(1h)-yl]-2-methyl-4-pyrimidinyl}hydrazino)-3-oxopropyl]hydroxyformamide methanesulphonate was triturated with a mortar and pestle. The resulting powder (24 g, 1.0 eq) was charged to a similar 250 mL jacketed vessel. The vessel was equipped with an overhead stirrer which was set to 60 RPM. The jacket fluid was controlled to 23° C. Purified water (125 mL) was added to the vessel containing [(2R)-2-(cyclopentylmethyl)-3-(2-{5-fluoro-6-[(9aS)-hexahydropyrazino[2,1-c][1,4]oxazin-8(1h)-yl]-2-methyl-4-pyrimidinyl}hydrazino)-3-oxopropyl]hydroxyformamide methanesulphonate. The resulting suspension was stirred continuously and monitored by turbidity and visual inspection. A clear solution was observed visually and confirmed turbidimetrically at 3 minutes.

pH solubility curve = format: physicochemical; details: thermodynamic from solid
Text: The pH solubility curve can be seen in Table 5 below.

[3] = Degradation rate on storage at forced conditions; format: physicochemical; details: forced conditions: 50° C., ambient humidity
[4] = Hydrolytic degradation rate of reconstituted lyophile; format: physicochemical; details: reconstituted lyophile at 5 mg/mL
panel of 12 strains = assay: Antimicrobial activity assay, broth microdilution, panel of 12 strains; format: cell-based; details: compared with the examples from WO 03/101442
Method: (§1) Whole-cell antimicrobial activity was determined by broth microdilution using the Clinical and Laboratory Standards Institute (CLSI, formerly NCCLS) recommended methodology (NCCLS Document M7-A6, “Methods for Dilution Susceptibility Tests for Bacteria that Grow Aerobically—Approved Standard Sixth Edition”, 2003). Compounds were tested in serial two-fold dilutions ranging from 64 to 0.06 μg/mL. A panel of 12 strains was evaluated in the assay. This panel consisted of the following laboratory strains: Staphylococcus aureus Oxford, Staphylococcus aureus WCUH29, Enterococcus faecalis I, Enterococcus faecalis 7, Haemophilus influenzae Q1, Haemophilus influenzae NEMC1, Moraxella catarrhalis 1502, Streptococcus pneumoniae 1629, Streptococcus pneumoniae N1387, Streptococcus pneumoniae Ery2, Escherichia coli 7623 (AcrABEFD+) and Escherichia coli 120 (AcrAB−). The minimum inhibitory concentration (MIC) was determined as the lowest concentration of compound that inhibited visible growth. A mirror reader was used to assist in determining the MIC endpoint.

Enterococcus faecalis 7 = assay: Antimicrobial activity assay (MIC); format: cell-based; details: median of all results obtained, panel run 6 times
Method: as §1

Enterococcus faecalis I = assay: Antimicrobial activity assay (MIC); format: cell-based; details: median of all results obtained, panel run 6 times
Method: as §1

[5] = test system: Escherichia coli 120 (AcrAB−); assay: Antimicrobial activity assay (MIC); format: cell-based
Method: as §1

[6] = test system: Escherichia coli 7623 (AcrABEFD+); assay: Antimicrobial activity assay (MIC); format: cell-based; details: median of all results obtained, panel run 6 times
Method: as §1

[7] = test system: Haemophilus influenzae NEMC1; assay: Antimicrobial activity assay (MIC); format: cell-based; details: median of all results obtained, panel run 6 times
Method: as §1

[8] = test system: Haemophilus influenzae Q1; assay: Antimicrobial activity assay (MIC); format: cell-based; details: median of all results obtained, panel run 6 times
Method: as §1

[9] = test system: Moraxella catarrhalis 1502; assay: Antimicrobial activity assay (MIC); format: cell-based; details: median of all results obtained, panel run 6 times
Method: as §1

[10] = test system: Staphylococcus aureus Oxford; assay: Antimicrobial activity assay (MIC); format: cell-based; details: median of all results obtained, panel run 6 times
Method: as §1

[11] = test system: Staphylococcus aureus WCUH29; assay: Antimicrobial activity assay (MIC); format: cell-based; details: median of all results obtained, panel run 6 times
Method: as §1

[12] = test system: Streptococcus pneumoniae 1629; assay: Antimicrobial activity assay (MIC); format: cell-based; details: median of all results obtained, panel run 6 times
Method: as §1

[13] = test system: Streptococcus pneumoniae Ery2; assay: Antimicrobial activity assay (MIC); format: cell-based; details: median of all results obtained, panel run 6 times
Method: as §1

[14] = test system: Streptococcus pneumoniae N1387; assay: Antimicrobial activity assay (MIC); format: cell-based; details: median of all results obtained, panel run 6 times
Method: as §1

CS(=O)(=O)O.Cc1nc(NNC(=O)[C@H](CC2CCCC2)CN(O)C=O)c(F)c(N2CCN3CCOC[C@@H]3C2)n1 [Example 11, [(2R)-2-(Cyclopentylmethyl)-3-(2-{5-fluoro-6-[(9aS)-hexahydropyrazino[2,1-c][1,4]oxazin-8(1H)-yl]-2-methyl-4-pyrimidinyl}hydrazino)-3-oxopropyl]hydroxyl formamide methanesulfonate polymorphic Form 2]
labile water adsorbed reversibly ([1]; up to 95% relative humidity): up to 2 % (wt/wt)

Cc1nc(NNC(=O)[C@H](CC2CCCC2)CN(O)C=O)c(F)c(N2CCN3CCOC[C@@H]3C2)n1 [Example 6]
relative humidity at which it deliquesces [1]: 70 % relative humidity
labile water adsorbed reversibly ([1]; up to 70% relative humidity): up to 0.4 % (wt/wt)
time to clear solution ([2]; 24 g powder, 125 mL purified water, 23° C., 60 RPM): 3 min
dissolution and solubility compared to the free base ([2]; one equivalent of methanesulphonic acid and water, 160 mg/mL): faster dissolution and enhanced solubility
solubility (pH solubility curve; Purified Water, pH 3.2, equilibrium not reached): > 452 mg/mL
degradation rate ([3]; listed as mesylate): 0.2 %/month
Degradation Rate % hydrolized/day ([4]; storage temperature 5° C., listed as Mesylate): 0.01 % hydrolized/day
Degradation Rate % hydrolized/day ([4]; storage temperature 25° C., listed as Mesylate): 0.11 % hydrolized/day

Cc1nc(NNC(=O)[C@H](CC2CCCC2)CN(O)C=O)c(F)c(N2CCN3CCOC[C@@H]3C2)n1 [[(2R)-2-(Cyclopentylmethyl)-3-(2-{5-fluoro-6-[(9aS)-hexahydropyrazino[2,1-c][1,4]oxazin-8(1H)-yl]-2-methyl-4-pyrimidinyl}hydrazino)-3-oxopropyl]hydroxyformamide]
in vitro antibacterial activity (MIC and/or MIC90) and/or in vivo efficacy (panel of 12 strains): greater in vitro antibacterial activity (MIC and/or MIC90) and/or better in vivo efficacy

Cc1nc(NNC(=O)[C@H](CC2CCCC2)CN(O)C=O)c(F)c(N2CCN3CCOC[C@@H]3C2)n1 [Example 24, [(2R)-2-(Cyclopentylmethyl)-3-(2-{5-fluoro-6-[(9aS)-hexahydropyrazino[2,1-c][1,4]oxazin-8(1H)-yl]-2-methyl-4-pyrimidinyl}hydrazino)-3-oxopropyl]hydroxyformamide]
MIC (Enterococcus faecalis 7): 32 µg/mL (≈ 66.7 µM)
MIC (Enterococcus faecalis I): 48 µg/mL (≈ 100 µM)
MIC [5]: 0.188 µg/mL (≈ 0.391 µM)
MIC [6]: 16 µg/mL (≈ 33.4 µM)
MIC [7]: 1 µg/mL (≈ 2.09 µM)
MIC [8]: 0.5 µg/mL (≈ 1.04 µM)
MIC [9]: 0.375 µg/mL (≈ 0.782 µM)
MIC [10]: 2 µg/mL (≈ 4.17 µM)
MIC [11]: 0.375 µg/mL (≈ 0.782 µM)
MIC [12]: 0.75 µg/mL (≈ 1.56 µM)
MIC [13]: 0.375 µg/mL (≈ 0.782 µM)
MIC [14]: 0.5 µg/mL (≈ 1.04 µM)

Cc1nc(NNC(=O)[C@H](CC2CCCC2)CN(O)C=O)c(F)c(N2CCN3CCOC[C@@H]3C2)n1 [Example 1, [(2R)-2-(Cyclopentylmethyl)-3-(2-{5-fluoro-6-[(9aS)-hexahydropyrazino[2,1-c][1,4]oxazin-8(1H)-yl]-2-methyl-4-pyrimidinyl}hydrazino)-3-oxopropyl]hydroxyformamide]
time observed without complete dissolution ([2]; 20 g powder, 125 mL purified water with 1.0 eq methanesulphonic acid, 23° C., 60 RPM): over 7.1 days
solubility (pH solubility curve; 0.003M methanesulphonic acid, pH 4.86, aqueous buffer): 1.93 mg/mL (≈ 4020 µM)
solubility (pH solubility curve; 0.01M methanesulphonic acid, pH 4.33, aqueous buffer): 4.98 mg/mL (≈ 10400 µM)
solubility (pH solubility curve; 0.03M methanesulphonic acid, pH 3.98, aqueous buffer): 13.9 mg/mL (≈ 29000 µM)
solubility (pH solubility curve; 0.05M methanesulphonic acid, pH 3.76, aqueous buffer): 22 mg/mL (≈ 45900 µM)
solubility (pH solubility curve; 0.1M methanesulphonic acid, pH 3.57, aqueous buffer): 41.7 mg/mL (≈ 87000 µM)
solubility (pH solubility curve; 0.3M methanesulphonic acid, pH 3.34, aqueous buffer): 116 mg/mL (≈ 242000 µM)
solubility (pH solubility curve; 0.5M methanesulphonic acid, pH 3.39, aqueous buffer): 193 mg/mL (≈ 402000 µM)
solubility (pH solubility curve; 1M methanesulphonic acid, pH 3.42, aqueous buffer): 347 mg/mL (≈ 724000 µM)
degradation rate ([3]; listed as free base): 1.7 %/month
Degradation Rate % hydrolized/day ([4]; storage temperature 5° C., listed as Free base): 0.06 % hydrolized/day
Degradation Rate % hydrolized/day ([4]; storage temperature 25° C., listed as Free base): 0.53 % hydrolized/day
